Laboratory results: patent US7125695B2, “Directed evolution of microorganisms” (Genencor International, Inc., priority 1999, dated 2006)

Tests used:
[1] = target: T1, Escherichia blattae 1,3-propanediol dehydrogenase (PDD, dhaT), mutant PDD from evolved strain GEB031 (ATCC PTA-92), SEQ ID NO:4 (Shimwellia blattae, UniProt Q3ZL59, H105L); assay: PDD comparison, 1,3-propanediol dehydrogenase from evolved strain GEB031; type: biochemical, Escherichia blattae GEB031 (ATCC PTA-92); settings: PDD from evolved strain GEB031, compared with wild type E. blattae
T1 construct: no tag
T1 sequence (Q3ZL59 entry or part of it H105L): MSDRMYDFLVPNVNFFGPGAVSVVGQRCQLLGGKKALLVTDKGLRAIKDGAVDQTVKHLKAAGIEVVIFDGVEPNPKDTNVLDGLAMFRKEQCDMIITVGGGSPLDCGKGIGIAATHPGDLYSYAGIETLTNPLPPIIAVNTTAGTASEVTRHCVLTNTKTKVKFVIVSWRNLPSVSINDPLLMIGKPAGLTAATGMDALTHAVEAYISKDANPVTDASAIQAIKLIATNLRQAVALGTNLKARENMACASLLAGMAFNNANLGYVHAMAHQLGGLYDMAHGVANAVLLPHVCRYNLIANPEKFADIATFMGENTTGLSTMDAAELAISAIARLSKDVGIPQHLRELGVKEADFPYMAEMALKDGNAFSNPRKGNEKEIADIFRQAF
Protocol: (§1) Strains—Wild type ATCC 33429, E. blattae comprising the mutant PDD as described in Example 4 and having ATCC accession number PTA-92.
(§2) Growth—Cells were grown in a complex medium at 30C 500 ml in a 2800 ml fernbach with shaking at 225 rpm for 20 hr. The medium consists of KH2PO4, 5.4 g/L; (NH4)2SO4, 1.2 g/L; MgSO47H2O, 0.4 g/L; yeast extract, 2.0 g/L; tryptone, 2.0 g/L; and glycerol, 9.2 g/L in tap water. The pH was adjusted to 7.1 with KOH before autoclaving (Honda, et al., 1980, J. Bacteriol, 143:1458–1465).
(§3) Extract prep—Cells were harvested by centrifugation with care to avoid anaerobic conditions. Pellets were resuspended in 100 mM Tricine pH 8.2 containing 50 mM KCl and 1 mM DTT. Cells were disrupted by passage through a French pressure cell. Crude extracts were clarified by centrifugation at 20K×g for 20 min followed by 100K×g for 1 hr to yield the high speed supernatant (HSS) fraction.
(§4) Assays—the assay for PDD was performed as described by Johnson, E. A. et al., 1987, J. Bacteriol. 169:2050–2054.
(§5) Partial purification of PDD—HSS was separated on a 16×100 Poros 20HQ column. The buffers were A, 50 mM HEPES, pH 7.4 containing 100 uM MnCl and B, A buffer containing 500 mM KCl. The column was loaded and developed at 10 ml/min. The gradient was 10 CV wash, a linear gradient to 70% B in 10 CV, and 1 CV to 100% B. The activity was detected in the very early fractions of the gradient. […]

wild-type E. blattae = assay: Viability (plate counts) of wild-type E. blattae during glycerol fermentation with accumulation of 3HPA; type: cell-based, Escherichia blattae ATCC 33429; settings: anaerobic glycerol fermentation, 30° C., 3HPA accumulated to 50 mM
Protocol: FIG. 5—Glycerol fermentation of E. blattae at pH 7.0. Culture conditions are described in the text. Plate counts were by serial dilution and performed in triplicate on Luria agar plates. Substrate and 0products were measured by HPLC.
The wild-type E. blattae and the evolved E. blattae were subjected to fermentation in the following medium: 75 g glycerol, 5 g K2HPO4.3H2O, 3 g KH2PO4, 2 g (NH4)2SO4, 0.4 g MgSO4.7H2O, 0.2 g CaCl2.2H2O, 4 mg CoCl2.2H2O, 2 g yeast extract, and 1 g peptone per liter water. The pH was maintained with 20% NaOH. Both fermentations were run at 30° C. with a N2 sparge and were inoculated with a stationary grown overnight preculture.
The wild-type E. blattae accumulated 3HPA and stopped growing and metabolizing glycerol. The accumulation of 3HPA was high and reached 50 mM. […] After the culture had consumed all of the glycerol more was added and the culture continued converting glycerol to 1,3-propanediol.

[2] = substrate: OCCCO; assay: PDD kinetics, partially purified 1,3-propanediol dehydrogenase from wild type strain 33429; type: biochemical, Escherichia blattae ATCC 33429; settings: other: PDD of wild type strain 33429; substrate 1,3-propanediol; 30.0 °C
Protocol: as §1, §2, §3, §4, §5

[3] = substrate: NC(=O)c1ccc[n+]([C@@H]2O[C@H](COP(=O)([O-])OP(=O)(O)OC[C@H]3O[C@@H](n4cnc5c(N)ncnc54)[C@H](O)[C@@H]3O)[C@@H](O)[C@H]2O)c1; assay: as above; type: biochemical, Escherichia blattae ATCC 33429; settings: other: PDD of wild type strain 33429; cofactor NAD; 30.0 °C
Protocol: as §1, §2, §3, §4, §5

For `OCCCO` [1,3-propanediol], the “Km for 1,3-propanediol” value [1] was “higher”.

With `O=CCCO` [3HPA, 3-hydroxy-propionaldehyde] the “toxicity of accumulated 3HPA (plate counts)” value (wild-type E. blattae) was “toxic”.

B1: Escherichia blattae 1,3-propanediol dehydrogenase (PDD, dhaT), wild type, strain ATCC 33429 (Shimwellia blattae) (protein)
chain: MSDRMYDFLVPNVNFFGPGAVSVVGQRCQLLGGKKALLVTDKGLRAIKDGAVDQTVKHLKAAGIEVVIFDGVEPNPKDTNVLDGLAMFRKEQCDMIITVGGGSPHDCGKGIGIAATHPGDLYSYAGIETLTNPLPPIIAVNTTAGTASEVTRHCVLTNTKTKVKFVIVSWRNLPSVSINDPLLMIGKPAGLTAATGMDALTHAVEAYISKDANPVTDASAIQAIKLIATNLRQAVALGTNLKARENMACASLLAGMAFNNANLGYVHAMAHQLGGLYDMAHGVANAVLLPHVCRYNLIANPEKFADIATFMGENTTGLSTMDAAELAISAIARLSKDVGIPQHLRELGVKEADFPYMAEMALKDGNAFSNPRKGNEKEIADIFRQAF
notes: no tag
B1 showed a Km [2] of 28 mM and a Km [3] of 0.057 mM.
